Experimental findings from patent US6291640A, “Peptidomimetic inhibitors of the human cytomegalovirus protease” (Boehringer Ingelheim Ltd., priority 1998, dated 2001) are described below.

Starred links: 1 amine or outer side, 2 acyl side, 3 side chain; linkers in the order of their positions; H or OH if unused. Non-standard residues stand in square brackets, D forms with d. Residues, ends and D or L forms follow the SMILES beside them. ξ: configuration not given here. *: point of attachment. ξ3Amino2oxobutanoyl = CC(N[*:1])C(=O)C(=O)[*:2]; NHBn = c1ccc(CN*)cc1; ξNva = CCCC(N)C(=O)O; CF3 = FC(F)(F)* A value given as a limit tells only on which side of the number the result lay.

The first assay deals with T1, HCMV No protease (Human cytomegalovirus, UniProt P16753).
T1 construct: at a position located near the center of the precursor (R-site) to excise the catalytic domain (No)
T1 sequence (P16753 1-256): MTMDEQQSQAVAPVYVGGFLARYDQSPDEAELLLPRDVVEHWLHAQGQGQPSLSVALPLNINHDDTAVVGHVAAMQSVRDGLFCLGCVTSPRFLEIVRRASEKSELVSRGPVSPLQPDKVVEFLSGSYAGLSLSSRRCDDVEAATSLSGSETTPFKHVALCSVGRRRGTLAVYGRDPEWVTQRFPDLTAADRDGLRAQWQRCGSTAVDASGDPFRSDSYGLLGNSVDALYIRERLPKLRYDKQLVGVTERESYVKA
The assay can be described thus: biochemical.
Conditions: not given
The protocol: HCMV No protease assay: HCMV No protease was assayed with an internally quenched fluorogenic substrate based on the maturation cleavage site (Abz-[…](3-NO2)R-OH, kcat /KM =260 M^-1 s^-1) . […] A protocol adaptable to a 96-well plate format was designed for the determination of IC50 values of inhibitors. […] After this period, enzymatic hydrolysis was initiated by addition of the fluorogenic substrate and the reaction was performed for 2 hr at 30° C. […] No quenching was required before fluorescence measurement since the total scanning time by the plate reader accessory was brief relative to the duration of the reaction. The incubation buffer (essentially similar to the pre-incubation buffer) contained 50 mM Tris/HCl pH 8, 0.5M Na2 SO4, 50 mM NaCl, 0.1 mM EDTA, 1 mM TCEP, 3% v/v DMSO and 0.05% w/v Casein. The final concentrations of HCMV N, protease (expressed in terms of total monomer concentration) and substrate were 100 nM and 5 μM respectively. IC50 values were obtained through fitting of the inhibition curve to a competitive inhibition model using SAS NLIN procedure. The mode of inhibition was determined by measurements of the initial rates (in cuvettes) at various substrate (Abz-Tbg-Tbg-Asn(Me)2 -Ala-SSRLY(3-NO2)R-OH) and inhibitor concentrations using the same conditions as above.
Turning to `CC(NC(=O)[C@H](CC(=O)N(C)C)NC(=O)[C@@H](NC(=O)CC(C)(C)C)C(C)(C)C)P(=O)(Oc1ccccc1)Oc1ccccc1` (stereo partly drawn) [Compound 79, Diphenyl N4 ,N4-dimethyl-N1-(1-aminoethylphosphinate)-(2S)-2-{[(1S)-2,2-dirmethyl-1-(neopentylcarboxamido)propyl]carboxamido}butanediamide], the IC50 was found to be 0.66 ± 0.06 µM.

The same assay, now with this note: IC50 (μM).
Molecule `CC(=O)N[C@@H](CO)C(=O)N[C@@H](Cc1ccc(O)cc1)C(=O)N[C@H](C(=O)N[C@@H](CCCCN)C(=O)NC(C)C(=O)C(=O)NCc1ccccc1)C(C)C` (stereo partly drawn) [Compound 218, Ac-Ser-Tyr-Val-Lys-Ala(d,l)-C(O)-NH-CH2 -Ph] (Ac-SYVK[ξ3Amino2oxobutanoyl]-NHBn) gave an IC50 of 9.4 µM.

The assay is the same for the next values; noted with them: inhibitor pre-incubated 5 hr at 30° C. with enzyme, fluorogenic substrate; read-out: IC50.
Turning to `CC(NC(=O)[C@H](CC(=O)N(C)C)NC(=O)[C@@H](NC(=O)[C@@H](NC(=O)OC(C)(C)C)C(C)C)C(C)C)C(=O)C(=O)Nc1cccc(C(N)=O)c1` (stereo partly shown) [Compound 414], the IC50 worked out at 1.6 µM.
On to `C[C@H](NC(=O)[C@H](CC(=O)N1CCCC1)NC(=O)[C@@H](NC(=O)CC(C)(C)C)C(C)(C)C)C(=O)c1nc2ccccc2o1` [Compound 304], for which the IC50 turned out to be 0.5 µM.
As for `CC(NC(=O)[C@H](CCC(=O)N(C)C)NC(=O)[C@@H](NC(=O)CC(C)(C)C)C(C)(C)C)C(=O)C(F)(F)C(F)(F)F` (stereo partly shown) [Compound 307], the IC50 is 2 µM.
The same measure, in the same setting: with `CC[C@@H](NC(=O)C(=O)C(C)NC(=O)[C@H](CS(N)(=O)=O)NC(=O)[C@@H](NC(=O)CC(C)(C)C)C(C)(C)C)c1ccccc1` (stereo partly shown) [Compound 310] the figure was 0.97 µM.
On to `CC[C@@H](NC(=O)C(=O)C(C)NC(=O)[C@H](CC(=O)N(C)C)NC(=O)[C@@H](NC(=O)[C@@H](NC(=O)CCCCCNC(=O)OC(C)(C)C)C(C)(C)C)C(C)(C)C)c1ccccc1` (stereo partly shown) [Compound 96], for which the IC50 is 0.057 µM.
Same read-out and setting: as for `CCCC(NC(=O)[C@H](CC(N)=O)NC(=O)[C@@H](NC(=O)[C@@H](NC(C)=O)C(C)C)C(C)C)C(=O)C(F)(F)F` (stereo partly shown) [Compound 45] (Ac-VVN[ξNva]-CF3), the figure is above 300 µM.
With `Cc1ccc2nc(C(=O)C(C)NC(=O)[C@H](CC(=O)N(C)C)NC(=O)[C@@H](NC(=O)CC(C)(C)C)C(C)(C)C)oc2c1` (stereo partly drawn) [Compound 82, N4,N4-dimethyl-N1-[1-methyl-2-(6-methyl-1,3-benzoxazol-2-yl)-2-oxoethyl]-(2S)-2-{[(1S)-2,2-dimethyl-1-(neopentylcarboxamido)propyl]carboxamido}butanediamide], the IC50 turned out to be 0.6 ± 0.1 µM.
On the same count and under the same terms, as for `CC(NC(=O)[C@H](CC(=O)N(C)C)NC(=O)[C@@H](NC(=O)[C@@H](NC(=O)OC(C)(C)C)C(C)C)C(C)C)C(=O)C(=O)Nc1ccccc1` (stereo partly shown) [Compound 410], the figure is 1.5 µM; as for `CC[C@@H](NC(=O)C(=O)C(C)NC(=O)[C@H](CC(=O)N(C)C)NC(=O)[C@@H](NC(=O)[C@@H](NC(=O)CCCCCN)C(C)(C)C)C(C)(C)C)c1ccccc1` (stereo partly shown) [Compound 97], 0.073 µM; as for `CC(NC(=O)[C@H](CC(=O)N1CCCC1)NC(=O)[C@@H](NC(=O)CC(C)(C)C)C(C)(C)C)C(=O)C(=O)NCCOCc1ccccc1` (stereo partly shown) [Compound 305], 0.3 µM.
The same measure, in the same setting: as for `CC(NC(=O)[C@H](CC(=O)N1CCOCC1)NC(=O)[C@@H](NC(=O)CC(C)(C)C)C(C)(C)C)C(=O)C(F)(F)C(F)(F)F` (stereo partly shown) [Compound 308], the figure is 0.3 µM; as for `CC[C@@H](NC(=O)C(=O)C(C)NC(=O)[C@H](CC(=O)N(C)CCc1ccccn1)NC(=O)[C@@H](NC(=O)CC(C)(C)C)C(C)(C)C)c1ccccc1` (stereo partly shown) [Compound 309], 0.12 µM; as for `CC(NC(=O)[C@H](CC(=O)N(C)C)NC(=O)[C@@H](NC(=O)CC(C)(C)C)C(C)(C)C)C(=O)C(=O)NC[C@@H](C)c1ccccc1` (stereo partly shown) [Compound 408], 0.2 µM.
Same read-out and setting: as for `CC(NC(=O)[C@H](CC(=O)NC(C)(C)C)NC(=O)[C@@H](NC(=O)CC(C)(C)C)C(C)(C)C)C(=O)C(F)(F)C(F)(F)F` (stereo partly shown) [Compound 306], the figure is 0.5 µM.

The same assay, now with this note: relative to compound 96.
Consider `CC[C@@H](NC(=O)C(=O)C(C)NC(=O)[C@H](CC(=O)N(C)C)NC(=O)[C@@H](NC(=O)[C@@H](NC(=O)CCCCCN)C(C)(C)C)C(C)(C)C)c1ccccc1` (stereo partly shown) [Compound 97], for which the “improvement of potency (factor) on removal of the Boc group” value came out at 2.

The assay is the same for the next values; noted with them: text of b731; read-out: IC50 value / potency.
In the case of `CC[C@@H](NC(=O)C(=O)C(C)NC(=O)[C@H](CC(=O)N(C)C)NC(=O)[C@@H](NC(=O)[C@@H](NC(=O)CCCCCNC(=O)OC(C)(C)C)C(C)(C)C)C(C)(C)C)c1ccccc1` (stereo partly shown) [Compound 96], the IC50 was determined as 0.075 µM.
The same measure, in the same setting: as for `CC[C@@H](NC(=O)C(=O)C(C)NC(=O)[C@H](CC(=O)N(C)C)NC(=O)[C@@H](NC(=O)[C@@H](NC(=O)CCCCCN)C(C)(C)C)C(C)(C)C)c1ccccc1` (stereo partly shown) [Compound 97], the figure is below 0.04 µM.
